# Assay results reported in PubChem BioAssay AID2060885 (Molecular Pharmacology Branch, DTP, NCI, 2025).
# Test system: NCI-H23 complex spheroids with HUVEC/MSC, viability
# Experiment: Anticancer human tumor NCI-H23 cell line growth inhibition [RAS];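 note: spheroids exposed to compound for 7 days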;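 for viability, T/C: 100% = DMSO vehicle control viability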
# Conditions: for IC50: curve of first compound; for viability, T/C: stronger effect = lower value
# How it was run: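 Tumour cells grown as complex spheroids with HUVEC endothelial cells and mesenchymal stem cells, treated with RAS pathway inhibitor combinations. Each agent spans half-log steps from near clinical Cmax, or 10 microM where Cmax is unknown.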
# [1] = second compound 0.00316 µM, first compound 0.0316 µM
# [2] = second compound 0.00316 µM, first compound 0.1 µM
# [3] = second compound 0.00316 µM, first compound 0.316 µM
# [4] = second compound 0.00316 µM, first compound 1 µM
# [5] = second compound 0.01 µM, first compound 0.0316 µM
# [6] = second compound 0.01 µM, first compound 0.1 µM
# [7] = second compound 0.01 µM, first compound 0.316 µM
# [8] = second compound 0.01 µM, first compound 1 µM
# [9] = second compound 0.0316 µM, first compound 0.0316 µM
# [10] = second compound 0.0316 µM, first compound 0.1 µM
# [11] = second compound 0.0316 µM, first compound 0.316 µM
# [12] = second compound 0.0316 µM, first compound 1 µM
# [13] = second compound 0.1 µM, first compound 0.0316 µM
# [14] = second compound 0.1 µM, first compound 0.1 µM
# [15] = second compound 0.1 µM, first compound 0.316 µM
# [16] = second compound 0.1 µM, first compound 1 µM
# [17] = second compound 0.316 µM, first compound 0.0316 µM
# [18] = second compound 0.316 µM, first compound 0.1 µM
# [19] = second compound 0.316 µM, first compound 0.316 µM
# [20] = second compound 0.316 µM, first compound 1 µM
# [21] = second compound 1 µM, first compound 0.0316 µM
# [22] = second compound 1 µM, first compound 0.1 µM
# [23] = second compound 1 µM, first compound 0.316 µM
# [24] = second compound 1 µM, first compound 1 µM
smiles,measurement,setting,value
CC(=O)OC12COC1CC(O)C1(C)C(=O)C(O)C3=C(C)C(OC(=O)C(O)C(NC(=O)OC(C)(C)C)c4ccccc4)CC(O)(C(OC(=O)c4ccccc4)C21)C3(C)C (centres undefined) + C=CC(=O)N1CCN(c2nc(OCC3CCCN3C)nc3c(F)c(-c4nc(N)cc(C)c4C(F)(F)F)c(Cl)cc23)C(C)C1,IC50,second compound 0.00316 µM,< 31.6 nM
same,IC50,second compound 0.01 µM,< 31.6 nM
same,IC50,second compound 0.0316 µM,< 31.6 nM
same,IC50,second compound 0.1 µM,< 31.6 nM
same,IC50,second compound 0.316 µM,< 31.6 nM
same,IC50,second compound 1 µM,< 31.6 nM
same,"viability, T/C",[1],12.9%
same,"viability, T/C",[2],17%
same,"viability, T/C",[3],17.9%
same,"viability, T/C",[4],16.9%
same,"viability, T/C","second compound 0.00316 µM, first compound 3.16 µM",25.1%
same,"viability, T/C","second compound 0.00316 µM, first compound 10 µM",41.9%
same,"viability, T/C",[5],14.2%
same,"viability, T/C",[6],17.6%
same,"viability, T/C",[7],13.1%
same,"viability, T/C",[8],18.7%
same,"viability, T/C","second compound 0.01 µM, first compound 3.16 µM",19.1%
same,"viability, T/C","second compound 0.01 µM, first compound 10 µM",28.7%
same,"viability, T/C",[9],15.5%
same,"viability, T/C",[10],17.1%
same,"viability, T/C",[11],15.6%
same,"viability, T/C",[12],15.9%
same,"viability, T/C","second compound 0.0316 µM, first compound 3.16 µM",23.9%
same,"viability, T/C","second compound 0.0316 µM, first compound 10 µM",26.2%
same,"viability, T/C",[13],12.4%
same,"viability, T/C",[14],15.2%
same,"viability, T/C",[15],11.8%
same,"viability, T/C",[16],14.9%
same,"viability, T/C","second compound 0.1 µM, first compound 3.16 µM",22.8%
same,"viability, T/C","second compound 0.1 µM, first compound 10 µM",22.1%
same,"viability, T/C",[17],11.1%
same,"viability, T/C",[18],13.9%
same,"viability, T/C",[19],14.3%
same,"viability, T/C",[20],16.3%
same,"viability, T/C","second compound 0.316 µM, first compound 3.16 µM",18.9%
same,"viability, T/C","second compound 0.316 µM, first compound 10 µM",26.8%
same,"viability, T/C",[21],11.8%
same,"viability, T/C",[22],14.7%
same,"viability, T/C",[23],14.4%
same,"viability, T/C",[24],15.4%
same,"viability, T/C","second compound 1 µM, first compound 3.16 µM",21.5%
same,"viability, T/C","second compound 1 µM, first compound 10 µM",20.9%
Nc1ccn(C2OC(CO)C(O)C2(F)F)c(=O)n1 (centres undefined) + C=CC(=O)N1CCN(c2nc(OCC3CCCN3C)nc3c(F)c(-c4nc(N)cc(C)c4C(F)(F)F)c(Cl)cc23)C(C)C1,IC50,second compound 0.00316 µM,< 3.16 nM
same,IC50,second compound 0.01 µM,< 3.16 nM
same,IC50,second compound 0.0316 µM,< 3.16 nM
same,IC50,second compound 0.1 µM,< 3.16 nM
same,IC50,second compound 0.316 µM,< 3.16 nM
same,IC50,second compound 1 µM,< 3.16 nM
same,"viability, T/C","second compound 0.00316 µM, first compound 0.00316 µM",29.9%
same,"viability, T/C","second compound 0.00316 µM, first compound 0.01 µM",4.17%
same,"viability, T/C",[1],1.98%
same,"viability, T/C",[2],2.04%
same,"viability, T/C",[3],2.83%
same,"viability, T/C",[4],2.41%
same,"viability, T/C","second compound 0.01 µM, first compound 0.00316 µM",34.3%
same,"viability, T/C","second compound 0.01 µM, first compound 0.01 µM",3.54%
same,"viability, T/C",[5],2.75%
same,"viability, T/C",[6],2.39%
same,"viability, T/C",[7],2.2%
same,"viability, T/C",[8],2.54%
same,"viability, T/C","second compound 0.0316 µM, first compound 0.00316 µM",24.9%
same,"viability, T/C","second compound 0.0316 µM, first compound 0.01 µM",3.04%
same,"viability, T/C",[9],2.2%
same,"viability, T/C",[10],2.3%
same,"viability, T/C",[11],2.25%
same,"viability, T/C",[12],3.18%
same,"viability, T/C","second compound 0.1 µM, first compound 0.00316 µM",20.2%
same,"viability, T/C","second compound 0.1 µM, first compound 0.01 µM",2.99%
same,"viability, T/C",[13],2.63%
same,"viability, T/C",[14],1.97%
same,"viability, T/C",[15],2.37%
same,"viability, T/C",[16],2.09%
same,"viability, T/C","second compound 0.316 µM, first compound 0.00316 µM",24.8%
same,"viability, T/C","second compound 0.316 µM, first compound 0.01 µM",3.77%
same,"viability, T/C",[17],2.05%
same,"viability, T/C",[18],1.47%
same,"viability, T/C",[19],2.4%
same,"viability, T/C",[20],2.12%
same,"viability, T/C","second compound 1 µM, first compound 0.00316 µM",21.4%
same,"viability, T/C","second compound 1 µM, first compound 0.01 µM",4.48%
same,"viability, T/C",[21],3.25%
same,"viability, T/C",[22],2.34%
same,"viability, T/C",[23],2.71%
same,"viability, T/C",[24],2.67%
